According to PMC3826796 (European journal of cancer (Oxford, England : 1990), 2012):
Where two headings read alike, the source gives them in different places.

Experiments:
[1] = cited from earlier work
advanced malignancies = conditions: cited from earlier work
Phospho-AKT (T308) = conditions: CLL cells from a subset of patients, post-dose; cited from earlier work
[2] = Plasma pharmacokinetics of SF1126 and hydrolysis products SF1101 and SF1174; format: in vivo, human; conditions: human, in vivo
[3] = background statement, ref not given; cited from earlier work

C=CCN(/C=C1/C(=O)O[C@H](COC)[C@@]2(C)C1=C(O)C(=O)C1=C2[C@H](OC(C)=O)C[C@]2(C)C(=O)CC[C@@H]12)CC=C [PX-866]
Grade 3 adverse event [1]: 1 reversible grade 3 transminitis

CC[C@H](Nc1ncnc2[nH]cnc12)c1nc2cccc(F)c2c(=O)n1-c1ccccc1 [CAL-101]
Patients with durable responses of >6 months (advanced malignancies; refractory non-Hodgkin's lymphoma and chronic lymphocytic leukaemia): 5
Reduction of Phospho-AKT (T308) (Phospho-AKT (T308)): > 90%

COc1ccc(Cl)c(Nc2nc3ccccc3nc2NS(=O)(=O)c2cccc(NC(=O)C(C)(C)N)c2)c1 [XL147]
Partial response (advanced malignancies): PR in a NSCLC patient with a confirmed PI3K3CA mutation
Major DLT [1]: skin rash

CS(=O)(=O)N1CCN(Cc2cc3nc(-c4cccc5[nH]ncc45)nc(N4CCOCC4)c3s2)CC1 [GDC-0941]
Patients with anti-tumour activity (advanced malignancies; phase I, relapsed/refractory solid tumours): 3 of 19

COc1ccc(-c2ccc3ncc4c(c3c2)n(-c2ccc(N3CCNCC3)c(C(F)(F)F)c2)c(=O)n4C)cn1 [BGT226]
AE profile ([1]; phase I, advanced solid tumours): nausea, vomiting and diarrhoea

O=c1cc(N2CCOCC2)oc2c(-c3ccccc3)cccc12 [SF1101, reference compound]
Concentrations reached (Cmax versus dose) [2]: 20 to 30 µM
half-life ([2]; iv): 1 to 2.4 h
half-life [3]: short half-life

Nc1cc(C(F)(F)F)c(-c2cc(N3CCOCC3)nc(N3CCOCC3)n2)cn1 [BKM120]
Patients on study for P8 months (advanced malignancies; phase I): 7
PR (number of patients) (advanced malignancies; phase I, triple negative breast cancer (KRAS mutated) patient): 1
AEs ([1]; phase I): grade 3 rash, abdominal pain and mood alterations
Events observed at DLT ([1]; phase I): Two grade 4 hyperglycaemic events

CCn1c(=O)c(-c2cc[nH]n2)cc2c(C)nc(N)nc21 [XL765]
Patients on study for ≥16 weeks (advanced malignancies; Phase I, oral): 11
Patients on study for ≥24 weeks (advanced malignancies; Phase I, oral): 7
